Data on eleven molecules can be found in article PMC9948161 (ACS Omega, 2023).

In experiment [1] the test system is MCF-7 breast cancer cell line. The experiment in a line: MTT in vitro antiproliferative assay. The experiment is classed as cell-based. The note with it: Homo sapiens, MCF7, 24 h, read-out: IC50 on the human MCF-7 cell line.
Experiment [2] deals with human red blood cell (HRBC) membrane. The experiment in a line: HRBC membrane stabilization assay. The experiment is classed as cell-based. The following applies: Erythrocyte, read-out: percentage of inhibition of hemolysis (HRBC membrane stabilization).
The target of the next experiment is VEGFR2 kinase (Homo sapiens, UniProt P35968). Briefly: biochemical.
Experiment [3] has as its system MCF-7 cells. The experiment in a line: Wound healing. The experiment is classed as cell-based, human. The note with it: MCF-7, IC50 concentration.
The subject of experiment [4] is MCF-7 cells. The experiment in a line: Cell cycle analysis by propidium iodide flow cytometry. The note with it: MCF-7, 1.29 μM, 24 h; untreated control 2.4. The experiment is classed as cell-based, human. On the technique in general: In flow cytometry, cells or beads pass a laser one at a time.

VEGFR2 kinase, sequence (P35968 20-1356): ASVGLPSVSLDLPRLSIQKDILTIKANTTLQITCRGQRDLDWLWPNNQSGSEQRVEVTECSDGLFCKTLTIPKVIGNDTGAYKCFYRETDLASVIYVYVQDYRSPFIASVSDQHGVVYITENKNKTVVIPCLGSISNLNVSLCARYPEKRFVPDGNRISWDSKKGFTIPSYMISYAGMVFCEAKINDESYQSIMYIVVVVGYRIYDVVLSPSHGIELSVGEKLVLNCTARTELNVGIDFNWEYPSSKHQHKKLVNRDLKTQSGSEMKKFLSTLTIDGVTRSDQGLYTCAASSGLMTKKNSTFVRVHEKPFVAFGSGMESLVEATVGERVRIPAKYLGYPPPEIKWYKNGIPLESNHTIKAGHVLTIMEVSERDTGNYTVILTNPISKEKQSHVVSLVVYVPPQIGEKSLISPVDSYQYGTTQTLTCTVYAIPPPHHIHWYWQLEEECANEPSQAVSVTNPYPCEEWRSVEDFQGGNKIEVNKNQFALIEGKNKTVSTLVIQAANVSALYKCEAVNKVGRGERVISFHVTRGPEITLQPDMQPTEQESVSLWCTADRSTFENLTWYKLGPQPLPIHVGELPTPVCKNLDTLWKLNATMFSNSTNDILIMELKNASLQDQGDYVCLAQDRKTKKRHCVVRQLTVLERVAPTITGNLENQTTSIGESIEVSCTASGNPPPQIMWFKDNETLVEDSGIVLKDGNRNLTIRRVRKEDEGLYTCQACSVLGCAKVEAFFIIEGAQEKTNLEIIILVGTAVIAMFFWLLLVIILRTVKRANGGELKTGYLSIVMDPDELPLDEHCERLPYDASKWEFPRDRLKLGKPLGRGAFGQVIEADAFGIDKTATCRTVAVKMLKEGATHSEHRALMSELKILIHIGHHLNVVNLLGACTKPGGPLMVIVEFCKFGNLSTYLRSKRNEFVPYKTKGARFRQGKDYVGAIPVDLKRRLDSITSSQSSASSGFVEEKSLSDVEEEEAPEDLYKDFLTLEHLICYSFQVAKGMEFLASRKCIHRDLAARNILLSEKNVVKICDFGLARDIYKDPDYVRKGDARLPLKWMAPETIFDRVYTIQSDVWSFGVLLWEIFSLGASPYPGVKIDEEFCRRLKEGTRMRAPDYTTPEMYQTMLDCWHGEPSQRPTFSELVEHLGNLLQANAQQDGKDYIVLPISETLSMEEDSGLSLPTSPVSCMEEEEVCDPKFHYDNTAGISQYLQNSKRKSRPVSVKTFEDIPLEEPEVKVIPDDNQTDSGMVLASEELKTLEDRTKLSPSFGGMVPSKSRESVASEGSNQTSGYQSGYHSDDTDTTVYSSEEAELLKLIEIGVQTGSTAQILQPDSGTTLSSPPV

`O=C(CC1Sc2ccccc2NC1=O)c1ccc(Br)cc1` (stereo not shown) [Compound 2d, 2-(2-(4-Bromophenyl)-2-oxoethyl)-2H-benzo[b][1,4]thiazin-3(4H)-one]: the 50% inhibitory concentration (IC50) (in general, the midpoint of a concentration-inhibition curve) in experiment [1] was found to be 2300 nM.
As to `CCOC(=O)CN1C(=O)C(CC(=O)c2ccc(Cl)cc2)Sc2ccccc21` (stereo not shown) [Compound 3c, Ethyl 2-(2-(2-(4-Chlorophenyl)-2-oxoethyl)-3-oxo-2H-benzo[b][1,4]thiazin-4(3H)-yl)acetate], in experiment [2], the inhibition (as a rule, how much of the control response was suppressed) at 125 µg/mL was 27.4% and the inhibition at 500 µg/mL worked out at 53.6%. Also, the 50% inhibitory concentration (IC50) in experiment [1] stood at 4390 nM.
In the case of `CCOC(=O)CN1C(=O)C(CC(=O)c2ccc(Br)cc2)Sc2ccccc21` (stereo not shown) [Compound 3d, Ethyl 2-(2-(2-(4-Bromophenyl)-2-oxoethyl)-3-oxo-2H-benzo[b][1,4]thiazin-4(3H)-yl)acetate], the IC50 in experiment [1] amounted to 3310 nM.
The same measure, in the same setting: to `O=c1[nH]cc(F)c(=O)[nH]1` [5-fluorouracil, reference compound] belongs 7790 nM.
With `CCOC(=O)CN1C(=O)C(CC(=O)c2ccc(F)c(F)c2)Sc2ccccc21` (stereo not shown) [Compound 3b, Ethyl 2-(2-(2-(3,4-Difluorophenyl)-2-oxoethyl)-3-oxo-2H-benzo [b][1,4]thiazin-4 (3H)-yl)acetate], the IC50 turned out to be 236 nM on VEGFR2 kinase and 4500 nM in experiment [1].
Regarding `O=C(CC1Sc2ccccc2NC1=O)c1ccc(F)cc1` (stereo not shown) [Compound 2a, 2-(2-(4-Fluorophenyl)-2-oxoethyl)-2H-benzo[b][1,4]thiazin-3(4H)-one], the IC50 at VEGFR2 kinase turned out to be 74.1 nM; in experiment [1], 2260 nM.
On to `O=C(CC1Sc2ccccc2NC1=O)c1ccc(Cl)c(Cl)c1` (stereo not shown) [Compound 2e, 2-(2-(3,4-Dichlorophenyl)-2-oxoethyl)-2H-benzo[b][1,4]thiazin-3(4H)-one], for which the IC50 on VEGFR2 kinase stood at 135 nM; in experiment [1], 4980 nM.
On to `O=C(CC1Sc2ccccc2NC1=O)c1ccc(F)c(F)c1` (stereo not shown) [Compound 2b, 2-(2-(3,4-Difluorophenyl)-2-oxoethyl)-2H-benzo[b][1,4]thiazin-3(4H)-one], for which the IC50 against VEGFR2 kinase is 59.3 nM; in experiment [1], 1370 nM.
For `CCOC(=O)CN1C(=O)C(CC(=O)c2ccc(F)cc2)Sc2ccccc21` (stereo not shown) [Compound 3a, Ethyl 2-(2-(2-(4-Fluorophenyl)-2-oxoethyl)-3-oxo-2H-benzo[b][1,4]thiazin-4(3H)-yl)acetate], in that order: 632 nM and 5190 nM.
With `O=C(CC1Sc2ccccc2NC1=O)c1ccc(Cl)cc1` (stereo not shown) [Compound 2c, 2-(2-(4-Chlorophenyl)-2-oxoethyl)-2H-benzo[b] [1, 4]thiazin-3(4H)-one], in experiment [2], the inhibition at 125 µg/mL is 31.6%, the inhibition at 250 µg/mL is 49.8% and the inhibition at 500 µg/mL amounted to 75.4%. In addition, the “wound healing percentage (percentage wound healing area) at 0 h” value in the experiment on MCF-7 cells [3] (0 h, control 66.42 ± 1.20) is 66.63 ± 0.66%. Moreover, the “reduction in the area of the wound (percentage wound healing area) after 24 h” value with MCF-7 cells [3] (24 h, control 43.23 ± 1.71) was determined as 61.98 ± 1.44%. In addition, the half-maximal inhibitory concentration (IC50) in experiment [1] came out at 1290 nM. The “population of cells at G2/M phase” value with MCF-7 cells [4] is recorded as 1%.
Take `Cc1ccc(C(=O)CC2Sc3ccccc3NC2=O)cc1Cl` (stereo not shown) [Compound 2f, 2-(2-(3-Chloro-4-methylphenyl)-2-oxoethyl)-2H-benzo[b][1,4]thiazin-3(4H)-one]: the results for the IC50 (at VEGFR2 kinase; in experiment [1]) were 97.2 nM and 3700 nM, respectively.
